The target of assay [1] is T1, 5-hydroxytryptamine 1A (5-HT1A) receptors (Homo sapiens (Human), UniProt P08908). The experiment in a line: 5-HT1A receptor radioligand competition binding assay ([3H]-LSD). The note with it: 293T membranes, read-out: Affinity Ki. The procedure:
The affinity of the compounds of the present disclosure for 5-hydroxytryptamine 1A (5-HT1A) receptors was determined by a radioligand competition binding assay.
In the first step, a cell membrane component containing specific 5-HT1A receptors was prepared. […] A vacuum pump was used to suck off the culture medium, 3 mL of lysis buffer was added to each culture dish, and the cells were placed in a 4° C. cold room for 10 minutes. After the cells were detached, the cells were transferred to a 15 mL centrifuge tube and centrifuged at 1500 rpm for 5 minutes at 4° C., and the supernatant was discarded. The cell pellet was transferred to a tissue homogenizer, and 3 mL of lysis buffer was added and fully ground until the cells were broken. Then, cell suspension was equally aliquoted into several EP tubes, centrifuged at 12000 rpm for 5 minutes at 4° C., and the supernatant was discarded. The precipitate was the cell membrane component containing the 5-HT1A receptors.
First, a standard binding buffer was added to the cell membrane component containing the 5-HT1A receptors, and the cell membrane was disrupted and resuspended with an electric tissue homogenizer. 30 μL of membrane protein suspension was added to each well of a 96-well plate. Then, 30 μL of different drugs were added to the 96-well plate sequentially from bottom to top to ensure that the final drug concentrations were 10^−5 M, 10^−6 M, 10^−7 M, 10^−8 M, 10^−9 M, and 0 M, with two replicates per treatment. Next, 30 μL of [^3H]-LSD was added to each well of the 96-well plate. The plate was incubated at room temperature in the dark for 2 hours. Detection was conducted. The machine readout value reflected the amount of [^3H]-LSD bound on the membrane, and after further data processing, the binding affinity Ki values of different compounds for the 5-HT1A receptors were obtained.

Assay [2] deals with T1, 5-hydroxytryptamine 1A (5-HT1A) receptors. The experiment in a line: 5-HT1A receptor Gαi1 BRET (G protein trimer dissociation). The class given is cell-based. The settings on record: relative to endogenous ligand 5-hydroxytryptamine. A general note: Bioluminescence resonance energy transfer reports proximity on the nanometre scale.
The target is the same in assay [3]. The experiment in a line: 5-HT1A receptor β-arrestin2 BRET (recruitment). In kind it is cell-based. The settings on record: relative to endogenous ligand 5-hydroxytryptamine. The protocol: At the same time, in order to examine the downstream β-arrestin2 signaling pathway mediated by 5-HT1A receptors, on the first day, a 6 cm culture dish was used for transfection with 500 ng of 5-HT1A receptors containing C-terminal seaweed luciferase (5HT1AR-Rluc), 500 ng of G protein-coupled receptor kinase 2 (GRK2), 2500 ng of β-arrestin2 containing N-terminal green fluorescent protein (GFP2-ARRB2), and 14 μL of PEI. The next day, the confluent cells of a 6 cm culture dish were digested and reseeded into a 96-well plate with 100 μL of culture medium added to each well. On the third day, the drugs were added for test. The 96-well plate was taken out from the cell incubator to decant the culture medium, 40 µL of the substrate coelenterazine 400a (final concentration of 5 μM) was added to each well, and then 20 μL of different drugs were added sequentially from left to right to ensure that the final concentration of the drug decreased gradually from bottom to top, with two replicates per treatment. Finally, the prepared samples were loaded on machine for test. The machine readout value reflected the recruitment of β-arrestin2 to the membrane or the dissociation of G protein trimer. The former indicated the degree of activation of the β-arrestin2 signaling pathway downstream of the 5-HT1 serotonin 1A receptors, and the latter indicated the degree of activation of the G protein signaling pathway downstream of the serotonin 1A receptors.

The target in assay [4] is T2, dopamine D2 receptors (Homo sapiens (Human), UniProt P14416). The experiment in a line: Dopamine D2 receptor β-arrestin2 BRET (recruitment). The class given is cell-based. The note with it: for Emax: relative to endogenous ligand dopamine, read-out: β-arrestin2 BRET Emax % ± SEM; for EC50: unit printed only in Cariprazine cell, read-out: β-arrestin2 BRET EC50. The method, boiled down: (§1)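 G-protein assay: cells co-transfected with D2 receptor, Gαi1-Rluc, Gβ3 and Gγ9-GFP (1 μg each); β-arrestin2 assay: D2-Rluc, GRK2 and GFP2-β-arrestin2 co-transfected. Cells were reseeded after one day and tested on day three. Drug dilution series were added in duplicate with coelenterazine 400a (5 μM final), and the BRET signal was read.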
T2 sequence (P14416 whole entry): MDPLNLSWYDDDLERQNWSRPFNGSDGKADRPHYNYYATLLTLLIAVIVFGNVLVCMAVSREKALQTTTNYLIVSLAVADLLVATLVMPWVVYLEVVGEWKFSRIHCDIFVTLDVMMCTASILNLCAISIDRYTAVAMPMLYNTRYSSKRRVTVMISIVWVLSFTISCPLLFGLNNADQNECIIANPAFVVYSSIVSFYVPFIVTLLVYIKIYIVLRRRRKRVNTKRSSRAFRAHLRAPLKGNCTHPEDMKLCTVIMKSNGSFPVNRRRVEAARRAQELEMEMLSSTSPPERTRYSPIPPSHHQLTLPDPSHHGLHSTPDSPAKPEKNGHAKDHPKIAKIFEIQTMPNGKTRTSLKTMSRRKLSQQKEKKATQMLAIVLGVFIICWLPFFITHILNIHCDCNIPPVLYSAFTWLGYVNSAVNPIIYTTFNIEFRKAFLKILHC

Assay [5] has as its target T2, dopamine D2 receptors. The experiment in a line: Dopamine D2 receptor radioligand competition binding assay ([3H]-Methylspiperone). The note with it: [3H]-Methylspiperone 0.3 to 0.5 nM, 293T membranes; read-out: Affinity Ki. The essentials:
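Membranes from cells transfected with human D2 receptor, PEI-mediated; competition with [3H]-methylspiperone for 2 h at room temperature in the dark.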

Assay [6] deals with T2, dopamine D2 receptors. The experiment in a line: Dopamine D2 receptor Gαi1 BRET (G protein trimer dissociation). The class given is cell-based. The settings on record: for Emax: relative to endogenous ligand dopamine, read-out: Gαi1 BRET Emax % ± SEM; for EC50: unit printed only in Cariprazine cell, read-out: Gαi1 BRET EC50. The essentials: as §1
A further assay addresses 5-HT2A receptors (Homo sapiens (Human), UniProt P28223). The experiment in a line: 5-HT2A receptor radioligand competition binding assay ([3H]-ketanserin). The procedure:
The affinity of the compounds of the present disclosure for 5-HT2A receptors was determined by a radioligand competition binding assay. In the first step, a cell membrane component containing specific 5-HT2A receptor was prepared. A 10 cm dish was used for transfection with […] of 5-HT2A receptors and 40 μL of PEI. After 48 hours, the 10 cm dish was taken out from the cell incubator and the cultured cells had expressed the 5-HT2A receptors. A vacuum pump was used to suck off the culture medium, 3 mL of lysis buffer was added to each culture dish, and the cells were placed in a 4° C. cold room for 10 minutes. After the cells were detached, the cells were transferred to a 15 mL centrifuge tube and centrifuged at 1500 rpm for 5 minutes at 4° C., and the supernatant was discarded. The cell pellet was transferred to a tissue homogenizer, and 3 mL of lysis buffer was added and fully ground until the cells were broken. Then, cell suspension was equally aliquoted into several EP tubes, centrifuged at 12000 rpm for 5 minutes at 4° C., and the supernatant was discarded. The precipitate was the cell membrane component containing the 5-HT2A receptors. […] First, a standard binding buffer was added to the cell membrane component containing the 5-HT2A receptors, and the cell membrane was disrupted and resuspended with an electric tissue homogenizer. 30 μL of membrane protein suspension was added to each well of a 96-well plate. Then, 30 μL of different drugs were added to the 96-well plate sequentially from bottom to top to ensure that the final drug concentrations were 10^−5 M, 10^−6 M, 10^−7 M, 10^−8 M, 10^−9 M, and 0 M, with two replicates per treatment. Next, 30 μL of [^3H]-ketanserin was added to each well of the 96-well plate. The plate was incubated at room temperature in the dark for 2 hours. Detection was conducted. The machine readout value reflected the amount of [^3H]-ketanserin bound on the membrane, and after further data processing, the affinity Ki values of different compounds for the 5-HT2A receptors were obtained.
(In general: In a radioligand displacement assay an active substance lowers the binding of a labelled ligand.)

T1 sequence (P08908 whole entry): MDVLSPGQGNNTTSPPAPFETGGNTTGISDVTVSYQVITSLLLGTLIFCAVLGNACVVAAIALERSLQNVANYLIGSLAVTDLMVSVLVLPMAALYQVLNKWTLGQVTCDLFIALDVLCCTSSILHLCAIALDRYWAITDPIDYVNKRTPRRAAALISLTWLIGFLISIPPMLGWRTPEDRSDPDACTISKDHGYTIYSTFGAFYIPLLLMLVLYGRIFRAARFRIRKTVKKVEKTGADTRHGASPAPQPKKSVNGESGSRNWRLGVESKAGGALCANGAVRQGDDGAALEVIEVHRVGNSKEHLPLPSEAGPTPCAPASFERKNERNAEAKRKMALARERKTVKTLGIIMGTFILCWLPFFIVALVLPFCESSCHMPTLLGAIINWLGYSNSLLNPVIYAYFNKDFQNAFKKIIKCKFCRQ
Chain of 5-HT2A receptors (P28223 whole entry): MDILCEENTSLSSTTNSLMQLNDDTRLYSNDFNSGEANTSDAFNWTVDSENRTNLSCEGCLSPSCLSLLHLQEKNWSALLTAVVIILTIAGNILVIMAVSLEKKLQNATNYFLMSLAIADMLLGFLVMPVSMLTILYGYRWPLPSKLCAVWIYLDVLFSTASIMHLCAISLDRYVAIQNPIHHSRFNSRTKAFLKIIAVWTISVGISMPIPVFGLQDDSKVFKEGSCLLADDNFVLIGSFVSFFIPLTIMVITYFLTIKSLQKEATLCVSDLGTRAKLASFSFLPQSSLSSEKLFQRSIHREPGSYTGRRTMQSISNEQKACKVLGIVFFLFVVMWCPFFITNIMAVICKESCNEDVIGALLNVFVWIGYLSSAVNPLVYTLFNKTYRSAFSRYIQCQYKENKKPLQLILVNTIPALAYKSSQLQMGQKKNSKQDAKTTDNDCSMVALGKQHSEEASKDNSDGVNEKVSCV

Regarding `CCOc1cccc2c3c(oc12)CN(CCN1CCCc2c(cnn2C)C1=O)CC3` [I-A42, 5-(2-(8-ethoxy-3,4-dihydrobenzofuro[2,3-c]pyridin-2(1H)-yl)ethyl)-1-methyl-5,6,7,8-tetrahydropyrazolo[4,3-c]azepin-4(1H)-one], the Ki (as a rule, a measure of affinity in units of concentration, obtained from inhibition or displacement) in assay [1] came out at 0.42 nM. Moreover, the maximal effect (Emax) (commonly the size of the effect at its maximum, as opposed to the concentration needed) in assay [2] is 101%; in assay [3], 21%.
Consider `CCOc1cccc2c3c(oc12)CN(CCN1CCCc2ccccc2C1=O)CC3` [I-A40, 2-(2-(8-ethoxy-3,4-dihydrobenzofuro[2,3-c]pyridin-2(1H)-yl)ethyl)-2,3,4,5-tetrahydro-1H-benzo[c]azepin-1-one], for which the maximal effect (Emax) in assay [2] amounted to 101%; in assay [3], 28.9%.
For the molecule `CCOc1cccc2c3c(oc12)CN(CCCCn1ncc(=O)n(C)c1=O)CC3` [I-A43, 2-(4-(8-ethoxy-3,4-dihydrobenzofuro[2,3-c]pyridin-2(1H)-yl)butyl)-4-methyl-1,2,4-triazine-3,5(2H,4H)-dione], the Emax was determined as 21% on dopamine D2 receptors [4] and 84.3% in assay [2]. The concentration giving a half-maximal response (EC50) (usually the concentration giving half of the maximal effect) at dopamine D2 receptors [4] worked out at 48.8 nM. Moreover, the inhibitory constant (Ki) in assay [1] worked out at 0.015 nM.
On to `CCOc1cccc2c3c(oc12)CN(CCN1CCCc2c(ccn2C)C1=O)CC3` [I-A41, 5-(2-(8-ethoxy-3,4-dihydrobenzofuro[2,3-c]pyridin-2(1H)-yl)ethyl)-1-methyl-5,6,7,8-tetrahydropyrrolo[3,2-c]azepin-4(1H)-one], for which the inhibition constant (Ki) in assay [1] worked out at 0.78 nM. Besides, the Emax in assay [2] worked out at 98.8%; in assay [3], 14.3%.
With `CCOc1cccc2c3c(oc12)CN(CCCCOc1ccc2ccc(=O)[nH]c2n1)CC3` [I-A29, 7-(4-(8-ethoxy-3,4-dihydrobenzofuro[2,3-c]pyridin-2(1H)-yl)butoxy)-1,8-naphthyridin-2(1H)-one], the inhibition constant (Ki) worked out at 27.7 nM at dopamine D2 receptors [5] and 5520 nM at 5-HT2A receptors ([3H]-ketanserin, 293T membranes, read-out: Ki). Besides, the Emax on dopamine D2 receptors [6] was found to be 40%; on dopamine D2 receptors [4] it was 47%; in assay [2], 90.3%; in assay [3], 8.46%. Besides, the EC50 on dopamine D2 receptors [6] worked out at 33.1 nM; at dopamine D2 receptors [4] it was 10.1 nM. The “affinity for 5-HT2A receptors (in words)” value at 5-HT2A receptors is reported as “very weak affinity”.
On to `CCOc1cccc2c3c(oc12)CN(CCNC(=O)c1cccs1)CC3` [I-A36, N-(2-(8-ethoxy-3,4-dihydrobenzofuro[2,3-c]pyridin-2(1H)-yl)ethyl)thiophene-2-carboxamide], for which the maximal effect (Emax) on dopamine D2 receptors [4] stood at 12%; in assay [2], 100%; in assay [3], 38.7%. The EC50 on dopamine D2 receptors [4] is 0.75 nM.
Take `COc1cccc2c1cc1n2CCN(CCNC(=O)C2CCOCC2)C1` [I-C8, N-(2-(9-methoxy-3,4-dihydropyrazino[1,2-a]indol-2(1H)-yl)ethyl)tetrahydro-2H-pyran-4-carboxamide]: at dopamine D2 receptors [5], the inhibition constant (Ki) came out at 239 nM. For the same molecule, the Emax in assay [2] turned out to be 81%; in assay [3], 79%.
Consider `CCOc1cccc2c3c(oc12)CN(CCNC(=O)C1CCCC1)CC3` [I-A33, N-(2-(8-ethoxy-3,4-dihydrobenzofuro[2,3-c]pyridin-2(1H)-yl)ethyl)cyclopentanecarboxamide], for which the Emax on dopamine D2 receptors [4] was found to be 18%; in assay [2], 96.7%; in assay [3] it was 25.2%. For the same molecule, at dopamine D2 receptors [4], the 50% effective concentration (EC50) amounted to 56.7 nM.
Take `CCOc1cccc2c3c(oc12)CN(CCNC(=O)c1ccccc1)CC3` [I-A35, N-(2-(8-ethoxy-3,4-dihydrobenzofuro[2,3-c]pyridin-2(1H)-yl)ethyl)benzamide]: the values for the maximal effect (Emax) (at dopamine D2 receptors [4]; in assay [2]; in assay [3]) were 17%, 102% and 39.8%, respectively. Besides, at dopamine D2 receptors [4], the EC50 turned out to be 3.17 nM.
Turning to `CCOc1cccc2c3c(oc12)CN(CCc1ccc2ccc(=O)[nH]c2c1)CC3` [I-A27, 7-(2-(8-ethoxy-3,4-dihydrobenzofuro[2,3-c]pyridin-2(1H)-yl)ethyl)quinolin-2(1H)-one], the Emax on dopamine D2 receptors [6] worked out at 57%; on dopamine D2 receptors [4], 101%; in assay [2], 64.1%. The EC50 on dopamine D2 receptors [6] came out at 45.2 nM; on dopamine D2 receptors [4], 55 nM. In addition, the Ki in assay [1] stood at 0.64 nM.

The values above are taken from patent publication US20250109139A1, “TRICYCLIC COMPOUND, AND PREPARATION METHOD THEREFOR AND USE THEREOF” (SHANGHAITECH UNIVERSITY, priority 2022, published 2025).
